The text below walks through data of ChEMBL document CHEMBL2073816 (J Biol Chem, 2001).

In data set [1] the target is T1, Solute carrier family 22 member 2 (Homo sapiens, UniProt O15244).
T1 sequence (O15244 whole entry): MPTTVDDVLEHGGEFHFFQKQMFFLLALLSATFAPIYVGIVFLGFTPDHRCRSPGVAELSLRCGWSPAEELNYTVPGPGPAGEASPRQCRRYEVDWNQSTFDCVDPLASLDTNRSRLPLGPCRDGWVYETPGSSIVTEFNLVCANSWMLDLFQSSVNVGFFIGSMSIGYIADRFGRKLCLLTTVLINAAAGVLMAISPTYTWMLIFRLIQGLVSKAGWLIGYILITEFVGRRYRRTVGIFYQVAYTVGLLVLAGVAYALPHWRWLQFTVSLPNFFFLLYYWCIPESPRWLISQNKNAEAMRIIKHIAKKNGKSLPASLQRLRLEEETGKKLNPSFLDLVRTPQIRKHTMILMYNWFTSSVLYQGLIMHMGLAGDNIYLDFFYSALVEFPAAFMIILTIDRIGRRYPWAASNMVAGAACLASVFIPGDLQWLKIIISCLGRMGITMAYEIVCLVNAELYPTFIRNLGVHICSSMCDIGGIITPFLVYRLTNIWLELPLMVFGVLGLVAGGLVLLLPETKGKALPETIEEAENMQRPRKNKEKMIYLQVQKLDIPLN
Description: TP_TRANSPORTER: inhibition of Choline uptake (Choline: 10 uM, NMN: 5000 uM) in Xenopus laevis oocytes. It counts as functional, cell-based. As to conditions: oocyte.

Data set [2] concerns the target T2, Solute carrier family 22 member 1 (Rattus norvegicus, UniProt Q63089).
T2 sequence (Q63089 whole entry): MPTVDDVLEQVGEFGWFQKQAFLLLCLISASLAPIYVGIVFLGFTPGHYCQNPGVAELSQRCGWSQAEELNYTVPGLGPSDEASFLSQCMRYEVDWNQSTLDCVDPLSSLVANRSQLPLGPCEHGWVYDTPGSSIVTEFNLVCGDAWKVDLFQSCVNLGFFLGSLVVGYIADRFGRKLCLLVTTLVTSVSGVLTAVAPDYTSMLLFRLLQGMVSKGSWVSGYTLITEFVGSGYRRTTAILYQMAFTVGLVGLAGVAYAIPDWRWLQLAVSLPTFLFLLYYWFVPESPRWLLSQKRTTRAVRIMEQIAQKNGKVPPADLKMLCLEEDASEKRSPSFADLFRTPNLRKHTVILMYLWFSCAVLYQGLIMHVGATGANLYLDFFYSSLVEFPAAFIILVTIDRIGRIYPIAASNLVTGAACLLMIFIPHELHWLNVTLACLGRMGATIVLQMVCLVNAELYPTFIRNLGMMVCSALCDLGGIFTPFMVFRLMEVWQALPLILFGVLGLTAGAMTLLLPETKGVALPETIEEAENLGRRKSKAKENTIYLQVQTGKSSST
Description: (§1) TP_TRANSPORTER: inhibition of Choline uptake (Choline: 10 uM, Quinine: 200 uM) in Xenopus laevis oocytes. Conditions: oocyte. It counts as functional, cell-based.

Data set [3] addresses T3, Solute carrier family 22 member 2 (Rattus norvegicus, UniProt Q9R0W2).
T3 sequence (Q9R0W2 whole entry): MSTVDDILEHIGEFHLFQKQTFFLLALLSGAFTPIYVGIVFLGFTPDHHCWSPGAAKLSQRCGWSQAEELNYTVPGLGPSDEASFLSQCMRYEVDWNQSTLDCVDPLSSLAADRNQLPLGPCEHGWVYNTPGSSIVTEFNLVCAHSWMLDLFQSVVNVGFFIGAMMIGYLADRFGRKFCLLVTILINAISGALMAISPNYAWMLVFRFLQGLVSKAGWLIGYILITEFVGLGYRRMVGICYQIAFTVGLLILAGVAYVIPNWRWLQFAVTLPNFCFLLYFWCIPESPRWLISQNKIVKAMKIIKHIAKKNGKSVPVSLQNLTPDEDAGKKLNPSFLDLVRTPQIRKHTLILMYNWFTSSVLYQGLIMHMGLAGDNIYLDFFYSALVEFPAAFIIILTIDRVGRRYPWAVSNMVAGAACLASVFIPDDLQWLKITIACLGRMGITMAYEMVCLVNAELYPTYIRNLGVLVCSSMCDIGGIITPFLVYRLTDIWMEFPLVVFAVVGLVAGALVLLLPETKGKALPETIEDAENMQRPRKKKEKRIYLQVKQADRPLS
The description is as §1. In kind it is functional, cell-based. As to conditions: oocyte.

The target in data set [4] is T1, Solute carrier family 22 member 2. Description: TP_TRANSPORTER: inhibition of Choline uptake (Choline: 10 uM, TPeA: 200 uM) in Xenopus laevis oocytes. In kind it is functional, cell-based. As to conditions: oocyte.
Substrate in data set [5]: C[N+](C)(C)CCO
Description: cells, lysate or membranes named.

Turning to `CNC(=O)c1cccnc1` [NICOTINYL METHYLAMIDE], in data set [1], the Activity result is “inhibitor [+]”. `C=C[C@H]1C[N@@]2CC[C@H]1C[C@H]2[C@H](O)c1ccnc2ccc(OC)cc12` [QUININE]: the Activity result in data set [2] and in data set [3] was “inhibitor [+]” in each case. Regarding `CCCCC[N+](CCCCC)(CCCCC)CCCCC` [TETRAPENTYLAMMONIUM], the Activity result in data set [4] was “inhibitor [+]”.

B1: Solute carrier family 22 member 1 (Rattus norvegicus) (protein)
chain: MPTVDDVLEQVGEFGWFQKQAFLLLCLISASLAPIYVGIVFLGFTPGHYCQNPGVAELSQRCGWSQAEELNYTVPGLGPSDEASFLSQCMRYEVDWNQSTLDCVDPLSSLVANRSQLPLGPCEHGWVYDTPGSSIVTEFNLVCGDAWKVDLFQSCVNLGFFLGSLVVGYIADRFGRKLCLLVTTLVTSVSGVLTAVAPDYTSMLLFRLLQGMVSKGSWVSGYTLITEFVGSGYRRTTAILYQMAFTVGLVGLAGVAYAIPDWRWLQLAVSLPTFLFLLYYWFVPESPRWLLSQKRTTRAVRIMEQIAQKNGKVPPADLKMLCLEEDASEKRSPSFADLFRTPNLRKHTVILMYLWFSCAVLYQGLIMHVGATGANLYLDFFYSSLVEFPAAFIILVTIDRIGRIYPIAASNLVTGAACLLMIFIPHELHWLNVTLACLGRMGATIVLQMVCLVNAELYPTFIRNLGMMVCSALCDLGGIFTPFMVFRLMEVWQALPLILFGVLGLTAGAMTLLLPETKGVALPETIEEAENLGRRKSKAKENTIYLQVQTGKSSST
In the case of B1, in data set [5], the Km was 346 µM.

B2: Solute carrier family 22 member 2 (Rattus norvegicus) (protein)
chain: MSTVDDILEHIGEFHLFQKQTFFLLALLSGAFTPIYVGIVFLGFTPDHHCWSPGAAKLSQRCGWSQAEELNYTVPGLGPSDEASFLSQCMRYEVDWNQSTLDCVDPLSSLAADRNQLPLGPCEHGWVYNTPGSSIVTEFNLVCAHSWMLDLFQSVVNVGFFIGAMMIGYLADRFGRKFCLLVTILINAISGALMAISPNYAWMLVFRFLQGLVSKAGWLIGYILITEFVGLGYRRMVGICYQIAFTVGLLILAGVAYVIPNWRWLQFAVTLPNFCFLLYFWCIPESPRWLISQNKIVKAMKIIKHIAKKNGKSVPVSLQNLTPDEDAGKKLNPSFLDLVRTPQIRKHTLILMYNWFTSSVLYQGLIMHMGLAGDNIYLDFFYSALVEFPAAFIIILTIDRVGRRYPWAVSNMVAGAACLASVFIPDDLQWLKITIACLGRMGITMAYEMVCLVNAELYPTYIRNLGVLVCSSMCDIGGIITPFLVYRLTDIWMEFPLVVFAVVGLVAGALVLLLPETKGKALPETIEDAENMQRPRKKKEKRIYLQVKQADRPLS
As to B2, the Km in data set [5] stood at 441 µM.

B3: Solute carrier family 22 member 2 (Homo sapiens) (protein)
chain: MPTTVDDVLEHGGEFHFFQKQMFFLLALLSATFAPIYVGIVFLGFTPDHRCRSPGVAELSLRCGWSPAEELNYTVPGPGPAGEASPRQCRRYEVDWNQSTFDCVDPLASLDTNRSRLPLGPCRDGWVYETPGSSIVTEFNLVCANSWMLDLFQSSVNVGFFIGSMSIGYIADRFGRKLCLLTTVLINAAAGVLMAISPTYTWMLIFRLIQGLVSKAGWLIGYILITEFVGRRYRRTVGIFYQVAYTVGLLVLAGVAYALPHWRWLQFTVSLPNFFFLLYYWCIPESPRWLISQNKNAEAMRIIKHIAKKNGKSLPASLQRLRLEEETGKKLNPSFLDLVRTPQIRKHTMILMYNWFTSSVLYQGLIMHMGLAGDNIYLDFFYSALVEFPAAFMIILTIDRIGRRYPWAASNMVAGAACLASVFIPGDLQWLKIIISCLGRMGITMAYEIVCLVNAELYPTFIRNLGVHICSSMCDIGGIITPFLVYRLTNIWLELPLMVFGVLGLVAGGLVLLLPETKGKALPETIEEAENMQRPRKNKEKMIYLQVQKLDIPLN
In the case of B3, the Km in data set [5] came out at 102 µM.

The term Km denotes the substrate concentration at which the rate is half of its maximum.
